Measurements reported in patent US5476944A, “Derivatives of cyclic phenolic thioethers” (G. D. Searle & Co., priority 1994, dated 1995).

Columns and labels:
[1] = target: T1, Sheep Seminal Vesicle Microsome Cyclooxygenase (Ovis aries, UniProt P05979); assay: Inhibition of Sheep Seminal Vesicle Microsome Cyclooxygenase; format: biochemical; conditions: sheep seminal vesicle microsomes
T1 construct: Lyophilized ovine microsome (approximately 1 mg) suspended in 2.9 ml Tris-HCl buffer; from tissue; host or cells: sheep seminal vesicle microsomes, lyophilized
T1 sequence (P05979 25-600): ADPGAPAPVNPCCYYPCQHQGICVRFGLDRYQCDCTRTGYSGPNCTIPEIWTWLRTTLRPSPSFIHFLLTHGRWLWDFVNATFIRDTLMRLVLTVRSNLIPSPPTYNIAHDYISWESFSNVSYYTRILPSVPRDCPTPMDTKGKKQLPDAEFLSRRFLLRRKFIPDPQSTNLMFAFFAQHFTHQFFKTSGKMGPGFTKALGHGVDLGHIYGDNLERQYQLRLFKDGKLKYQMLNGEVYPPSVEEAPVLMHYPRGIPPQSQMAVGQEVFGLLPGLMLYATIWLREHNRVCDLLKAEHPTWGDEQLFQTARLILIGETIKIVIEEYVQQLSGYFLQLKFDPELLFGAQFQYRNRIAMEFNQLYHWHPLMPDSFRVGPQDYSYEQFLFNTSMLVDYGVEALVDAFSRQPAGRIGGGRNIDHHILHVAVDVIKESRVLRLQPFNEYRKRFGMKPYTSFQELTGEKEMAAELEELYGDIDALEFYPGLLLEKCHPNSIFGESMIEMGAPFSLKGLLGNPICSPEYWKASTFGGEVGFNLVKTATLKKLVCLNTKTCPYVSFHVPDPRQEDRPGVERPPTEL
Protocol: The compounds of the present invention evaluated with respect to cyclooxygenase inhibition according to the following assay procedure. Inhibition of Sheep Seminal Vesicle Microsome Cyclooxygenase: This assay was based on oxygen consumption during conversion of arachidonic acid to prostaglandin G2 catalyzed by cyclooxygenase BIOCHEM. 11:3276-3285 (1972), which is incorporated herein by reference. Lyophilized ovine microsome (approximately 1 mg) suspended in 2.9 ml Tris-HCl buffer, pH 8.2, containing 0.7 mM phenol were used as source of arachidonate cyclooxygenase. The inhibitor, 50 μl in DMSO, was added and the mixture was preincubated for 5 minutes at 37° C. Fifty μl of arachidonic acid (final concentration 50 μM) was added to start the reaction. The slopes of the initial rates of oxygen uptake, in the presence and absence of inhibitor, were compared to determine reaction inhibition. Percent inhibition was computed using the following formula: [formula]

Rats = assay: Chronic adjuvant-induced polyarthritis test; format: in vivo; conditions: intragastric; for minimal effective dose: Rattus norvegicus, po, 456 h, 18 days, rats, read-out: Minimum dose to result in a statistically significant reduction [p < 0.05] in the paw volume/body weight ratio; for % Inhibition in the paw volume to body weight ratio: at minimum significant dose 25 mg/kg/day, day 19, rats
Protocol: Chronic adjuvant-induced polyarthritis test:
Rats [50-70 gm] were weighed, ear tagged and intradermally inoculated in the tail base with 2.0 mg of heat killed M. butyricum suspended in 0.05 ml of white paraffin oil [n=12-15 per group]. Compounds were intragastrically administered beginning on the day of inoculation and continued for 18 days. Each daily dose was split [dose volume=0.5 ml/100 gm] and given approximately 7 hours apart. Animals were weighed every 3 days, and the dose was adjusted accordingly. On day 19, animals were sacrificed by inhalation of CO2, weighed, and total hind paw volume was measured by the displacement of water with a plethysmometer (Ugo Basile, Varese, Italy). A group of age-matched naive rats were included. These rats, designated "normal," were not inoculated with adjuvant or gavaged with vehicle.
For individual experiments, the paw volume/body weight ratios for each dose were compared to the ratio for the vehicle treated control group by a two-tailed Dunnett's t-test (p ≤0.05). The Dunnett's test was preceded by a Bartlett's test of variance homogeneity across the dose groups. If the Bartlett's test was significant, an appropriate variance stabilizing transformation was applied to the data, and the Dunnett's test was performed on the transformed data.

Row | IC50 [1] | SMILES | minimal effective dose (Rats) | % Inhibition in the paw volume to body weight ratio (Rats)
1 | 3.1 µM | CC(C)(C)c1cc(S[C@@H]2CCCC[C@H]2SCC(=O)O)cc(C(C)(C)C)c1 (relative stereo) [Example 5, trans-[[2-[[3,5-bis(1,1-dimethylethyl)phenyl]thio]cyclohexyl]thio]acetic acid] | 25 mg/kg/day | 64.4%
2 | 3.8 µM | CC(C)(C)c1cc(S[C@@H]2CCCC[C@H]2OCC(=O)O)cc(C(C)(C)C)c1 (relative stereo) [Example 17, trans-[[2-[[3,5-bis(1,1-dimethylethyl)phenyl]thio]cyclohexyl]oxy]acetic acid] | 25 mg/kg/day | 50.8%
